What was measured:
Assay in all cases: relative viability (nuclei count vs DMSO), 5 days (fraction); higher = more cells survive
A-427 = system: A-427
Summary of the method: (§1)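 Nuclei were stained with Hoechst during a one-step fixation (final 0.05% Triton X-100, 1% formaldehyde, 1 ug/ml Hoechst) carried out 5 days after dosing, then counted on 4× images. The cells, lung cancer lines in 1536-well plates, had been dosed by pin tool the day after seeding with one drug alone or a fixed anchor-drug dose plus five library-drug doses (not always all listed) in √10 steps. Relative viability is the nuclei count in treated wells divided by that in vehicle wells, and each value is the median of duplicate plates.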

ABC-1 = system: ABC-1
Summary of the method: as §1

COR-L23 = system: COR-L23
Summary of the method: as §1

EMC-BAC-2 = system: EMC-BAC-2
Summary of the method: as §1

HARA = system: HARA
Summary of the method: as §1

HOP-62 = system: HOP-62
Summary of the method: as §1

LK-2 = system: LK-2
Summary of the method: as §1

LXF-289 = system: LXF-289
Summary of the method: as §1

NCI-H1792 = system: NCI-H1792
Summary of the method: as §1

NCI-H1793 = system: NCI-H1793
Summary of the method: as §1

NCI-H1944 = system: NCI-H1944
Summary of the method: as §1

NCI-H1993 = system: NCI-H1993
Summary of the method: as §1

NCI-H2009 = system: NCI-H2009
Summary of the method: as §1

NCI-H2170 = system: NCI-H2170
Summary of the method: as §1

NCI-H2228 = system: NCI-H2228
Summary of the method: as §1

NCI-H3122 = system: NCI-H3122
Summary of the method: as §1

NCI-H596 = system: NCI-H596
Summary of the method: as §1

NCI-H727 = system: NCI-H727
Summary of the method: as §1

PC-3 [JPC-3] = system: PC-3 [JPC-3]
Summary of the method: as §1

SK-LU-1 = system: SK-LU-1
Summary of the method: as §1

SK-MES-1 = system: SK-MES-1
Summary of the method: as §1

SW 1573 = system: SW 1573
Summary of the method: as §1

SW 900 = system: SW 900
Summary of the method: as §1

**Q.** How did the relative viability (A-427; first compound 0.08 µM) turn out when `Oc1nc(-c2ccc(C(F)(F)F)cc2)nc2c1CSCC2` [XAV939] + CCNC(=O)c1noc(-c2cc(C(C)C)c(O)cc2O)c1-c1ccc(CN2CCOCC2)cc1 [Luminespib] (partner 0.01 µM) was run?
**A.** 1.15

**Q.** And the relative viability (A-427; first compound 0.253 µM)?
**A.** 0.978

**Q.** And the relative viability (A-427; first compound 0.8 µM)?
**A.** 0.753

**Q.** What about the relative viability (A-427; first compound 2.53 µM) of the same compound?
**A.** 0.782

**Q.** What about the relative viability (ABC-1; first compound 0.08 µM) of the same compound?
**A.** 0.778

**Q.** What about the relative viability (ABC-1; first compound 0.253 µM) of the same compound?
**A.** 0.584

**Q.** What about the relative viability (ABC-1; first compound 0.8 µM) of the same compound?
**A.** 0.795

**Q.** What about the relative viability (ABC-1; first compound 2.53 µM) of the same compound?
**A.** 0.405

**Q.** And the relative viability (COR-L23; first compound 0.08 µM)?
**A.** 0.929

**Q.** And the relative viability (COR-L23; first compound 0.253 µM)?
**A.** 0.642

**Q.** What about the relative viability (COR-L23; first compound 0.8 µM) of the same compound?
**A.** 0.615

**Q.** And the relative viability (COR-L23; first compound 2.53 µM)?
**A.** 0.792

**Q.** What about the relative viability (EMC-BAC-2; first compound 0.08 µM) of the same compound?
**A.** 1.37

**Q.** What about the relative viability (EMC-BAC-2; first compound 0.253 µM) of the same compound?
**A.** 1.09

**Q.** And the relative viability (EMC-BAC-2; first compound 0.8 µM)?
**A.** 0.971

**Q.** And the relative viability (EMC-BAC-2; first compound 2.53 µM)?
**A.** 0.771

**Q.** And the relative viability (HARA; first compound 0.08 µM)?
**A.** 1.29

**Q.** And the relative viability (HARA; first compound 0.253 µM)?
**A.** 0.877

**Q.** And the relative viability (HARA; first compound 0.8 µM)?
**A.** 0.865

**Q.** And the relative viability (HARA; first compound 2.53 µM)?
**A.** 0.675

**Q.** And the relative viability (HOP-62; first compound 0.08 µM)?
**A.** 1.01

**Q.** And the relative viability (HOP-62; first compound 0.253 µM)?
**A.** 0.869

**Q.** What about the relative viability (HOP-62; first compound 0.8 µM) of the same compound?
**A.** 1

**Q.** What about the relative viability (HOP-62; first compound 2.53 µM) of the same compound?
**A.** 0.74

**Q.** What about the relative viability (LK-2; first compound 0.08 µM) of the same compound?
**A.** 0.202

**Q.** And the relative viability (LK-2; first compound 0.253 µM)?
**A.** 0.183

**Q.** And the relative viability (LK-2; first compound 0.8 µM)?
**A.** 0.192

**Q.** And the relative viability (LK-2; first compound 2.53 µM)?
**A.** 0.167

**Q.** What about the relative viability (LXF-289; first compound 0.08 µM) of the same compound?
**A.** 0.727

**Q.** What about the relative viability (LXF-289; first compound 0.253 µM) of the same compound?
**A.** 0.681

**Q.** And the relative viability (LXF-289; first compound 0.8 µM)?
**A.** 0.778

**Q.** What about the relative viability (LXF-289; first compound 2.53 µM) of the same compound?
**A.** 0.729

**Q.** What about the relative viability (NCI-H1792; first compound 0.08 µM) of the same compound?
**A.** 0.419

**Q.** And the relative viability (NCI-H1792; first compound 0.253 µM)?
**A.** 0.391

**Q.** What about the relative viability (NCI-H1792; first compound 0.8 µM) of the same compound?
**A.** 0.466

**Q.** What about the relative viability (NCI-H1792; first compound 2.53 µM) of the same compound?
**A.** 0.464

**Q.** And the relative viability (NCI-H1793; first compound 0.08 µM)?
**A.** 0.223

**Q.** What about the relative viability (NCI-H1793; first compound 0.253 µM) of the same compound?
**A.** 0.186

**Q.** And the relative viability (NCI-H1793; first compound 0.8 µM)?
**A.** 0.176

**Q.** What about the relative viability (NCI-H1793; first compound 2.53 µM) of the same compound?
**A.** 0.185

**Q.** And the relative viability (NCI-H1944; first compound 0.08 µM)?
**A.** 0.843

**Q.** What about the relative viability (NCI-H1944; first compound 0.253 µM) of the same compound?
**A.** 0.676

**Q.** And the relative viability (NCI-H1944; first compound 0.8 µM)?
**A.** 0.788

**Q.** And the relative viability (NCI-H1944; first compound 2.53 µM)?
**A.** 0.595

**Q.** What about the relative viability (NCI-H1993; first compound 0.08 µM) of the same compound?
**A.** 0.779

**Q.** What about the relative viability (NCI-H1993; first compound 0.253 µM) of the same compound?
**A.** 0.672

**Q.** What about the relative viability (NCI-H1993; first compound 0.8 µM) of the same compound?
**A.** 0.748

**Q.** What about the relative viability (NCI-H1993; first compound 2.53 µM) of the same compound?
**A.** 0.714

**Q.** What about the relative viability (NCI-H2009; first compound 0.08 µM) of the same compound?
**A.** 1.09

**Q.** What about the relative viability (NCI-H2009; first compound 0.253 µM) of the same compound?
**A.** 0.883

**Q.** What about the relative viability (NCI-H2009; first compound 0.8 µM) of the same compound?
**A.** 1

**Q.** And the relative viability (NCI-H2009; first compound 2.53 µM)?
**A.** 0.94

**Q.** What about the relative viability (NCI-H2170; first compound 0.08 µM) of the same compound?
**A.** 0.764

**Q.** What about the relative viability (NCI-H2170; first compound 0.253 µM) of the same compound?
**A.** 0.754

**Q.** And the relative viability (NCI-H2170; first compound 0.8 µM)?
**A.** 0.704

**Q.** What about the relative viability (NCI-H2170; first compound 2.53 µM) of the same compound?
**A.** 0.529

**Q.** What about the relative viability (NCI-H2228; first compound 0.08 µM) of the same compound?
**A.** 0.156

**Q.** What about the relative viability (NCI-H2228; first compound 0.253 µM) of the same compound?
**A.** 0.158

**Q.** And the relative viability (NCI-H2228; first compound 0.8 µM)?
**A.** 0.152

**Q.** And the relative viability (NCI-H2228; first compound 2.53 µM)?
**A.** 0.134

**Q.** And the relative viability (NCI-H3122; first compound 0.08 µM)?
**A.** 0.0855

**Q.** What about the relative viability (NCI-H3122; first compound 0.253 µM) of the same compound?
**A.** 0.0791

**Q.** And the relative viability (NCI-H3122; first compound 0.8 µM)?
**A.** 0.0658

**Q.** What about the relative viability (NCI-H3122; first compound 2.53 µM) of the same compound?
**A.** 0.0658

**Q.** What about the relative viability (NCI-H596; first compound 0.08 µM) of the same compound?
**A.** 1.06

**Q.** And the relative viability (NCI-H596; first compound 0.253 µM)?
**A.** 0.881

**Q.** And the relative viability (NCI-H596; first compound 0.8 µM)?
**A.** 1.13

**Q.** What about the relative viability (NCI-H596; first compound 2.53 µM) of the same compound?
**A.** 0.873

**Q.** What about the relative viability (NCI-H727; first compound 0.08 µM) of the same compound?
**A.** 0.31

**Q.** What about the relative viability (NCI-H727; first compound 0.253 µM) of the same compound?
**A.** 0.345

**Q.** And the relative viability (NCI-H727; first compound 0.8 µM)?
**A.** 0.472

**Q.** What about the relative viability (NCI-H727; first compound 2.53 µM) of the same compound?
**A.** 0.342

**Q.** And the relative viability (PC-3 [JPC-3]; first compound 0.08 µM)?
**A.** 0.829

**Q.** What about the relative viability (PC-3 [JPC-3]; first compound 0.253 µM) of the same compound?
**A.** 0.647

**Q.** And the relative viability (PC-3 [JPC-3]; first compound 0.8 µM)?
**A.** 0.68

**Q.** What about the relative viability (PC-3 [JPC-3]; first compound 2.53 µM) of the same compound?
**A.** 0.635

**Q.** What about the relative viability (SK-LU-1; first compound 0.08 µM) of the same compound?
**A.** 0.201

**Q.** What about the relative viability (SK-LU-1; first compound 0.253 µM) of the same compound?
**A.** 0.193

**Q.** And the relative viability (SK-LU-1; first compound 0.8 µM)?
**A.** 0.207

**Q.** What about the relative viability (SK-LU-1; first compound 2.53 µM) of the same compound?
**A.** 0.246

**Q.** And the relative viability (SK-MES-1; first compound 0.08 µM)?
**A.** 0.915

**Q.** And the relative viability (SK-MES-1; first compound 0.253 µM)?
**A.** 0.726

**Q.** And the relative viability (SK-MES-1; first compound 0.8 µM)?
**A.** 0.654

**Q.** And the relative viability (SK-MES-1; first compound 2.53 µM)?
**A.** 0.48

**Q.** What about the relative viability (SW 1573; first compound 0.08 µM) of the same compound?
**A.** 0.691

**Q.** What about the relative viability (SW 1573; first compound 0.253 µM) of the same compound?
**A.** 0.249

**Q.** And the relative viability (SW 1573; first compound 0.8 µM)?
**A.** 0.136

**Q.** What about the relative viability (SW 1573; first compound 2.53 µM) of the same compound?
**A.** 0.226

**Q.** And the relative viability (SW 900; first compound 0.08 µM)?
**A.** 0.171

**Q.** And the relative viability (SW 900; first compound 0.253 µM)?
**A.** 0.18

**Q.** What about the relative viability (SW 900; first compound 0.8 µM) of the same compound?
**A.** 0.183

**Q.** What about the relative viability (SW 900; first compound 2.53 µM) of the same compound?
**A.** 0.151
